Data reported in the supplement of paper PMC10307832.

Experiments:
Assay in all cases: relative viability (nuclei count vs DMSO), 5 days (fraction); higher = more cells survive
[1] = compound: CCC1=CN=CN=C1N2CCN(CC2)CC3=NC4=C(N3)C=C(C=C4)C(F)(F)F + Nc1ncn([C@H]2C[C@H](O)[C@@H](CO)O2)c(=O)n1 [Decitabine] (partner 2 µM)
How it was run: (§1)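 Lung cancer cell lines were pin-tool dosed in 1536-well plates on the day after seeding, with either a lone drug or a fixed anchor-drug dose plus five library-drug doses (not always all listed) in √10 steps. Nuclei were counted on 4× images after 5 days. Relative viability is the ratio of treated-well to vehicle-well nuclei counts, with each value a median of duplicate plates.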

Mirin + Pictilisib = compound: N=C1NC(=O)/C(=C/c2ccc(O)cc2)S1 [Mirin] + CS(=O)(=O)N1CCN(Cc2cc3nc(-c4cccc5[nH]ncc45)nc(N4CCOCC4)c3s2)CC1 [Pictilisib] (partner 1 µM)
How it was run: as §1

[2] = compound: CCn1c(-c2nonc2N)nc2cnc(Oc3cccc(NC(=O)c4ccc(OCCN5CCOCC5)cc4)c3)cc21 + CS(=O)(=O)N1CCN(Cc2cc3nc(-c4cccc5[nH]ncc45)nc(N4CCOCC4)c3s2)CC1 [Pictilisib] (partner 1 µM)
How it was run: as §1

[3] = compound: CCC1=CN=CN=C1N2CCN(CC2)CC3=NC4=C(N3)C=C(C=C4)C(F)(F)F + CS(=O)(=O)N1CCN(Cc2cc3nc(-c4cccc5[nH]ncc45)nc(N4CCOCC4)c3s2)CC1 [Pictilisib] (partner 1 µM)
How it was run: as §1

Cell Line	relative viability ([1]; first compound 0.04 µM)	relative viability ([1]; first compound 0.1265 µM)	relative viability ([1]; first compound 0.4 µM)	relative viability ([1]; first compound 1.265 µM)	relative viability ([1]; first compound 4 µM)	relative viability (Mirin + Pictilisib; first compound 0.25 µM)	relative viability (Mirin + Pictilisib; first compound 0.7906 µM)	relative viability (Mirin + Pictilisib; first compound 2.5 µM)	relative viability (Mirin + Pictilisib; first compound 7.906 µM)	relative viability (Mirin + Pictilisib; first compound 25 µM)	relative viability ([2]; first compound 0.04 µM)	relative viability ([2]; first compound 0.1265 µM)	relative viability ([2]; first compound 0.4 µM)	relative viability ([2]; first compound 1.265 µM)	relative viability ([2]; first compound 4 µM)	relative viability ([3]; first compound 0.04 µM)	relative viability ([3]; first compound 0.1265 µM)	relative viability ([3]; first compound 0.4 µM)	relative viability ([3]; first compound 1.265 µM)	relative viability ([3]; first compound 4 µM)
NCI-H3122	0.387	0.459	0.418	0.452	0.351	0.541	0.515	0.576	0.673	0.7	0.879	0.672	0.516	0.674	0.542	0.69	0.578	0.609	0.665	0.659
NCI-H2023	0.21	0.218	0.224	0.215	0.252	0.252	0.258	0.19	0.29	0.214	0.315	0.293	0.199	0.231	0.221	0.274	0.225	0.216	0.192	0.319
PC-14	0.209	0.159	0.22	0.205	0.228	0.658	0.568	0.68	0.797	0.933	1.06	0.708	0.751	0.619	0.666	0.845	0.621	0.671	0.573	0.6
NCI-H727	0.798	0.875	0.956	0.655	0.941	0.353	0.443	0.458	0.501	0.515	0.613	0.741	0.604	0.487	0.345	0.521	0.377	0.29		0.382
NCI-H1734	0.458	0.465	0.566	0.499	0.489	0.427	0.376	0.445	0.444	0.394	0.47	0.415	0.282	0.309	0.249	0.387	0.449	0.431		0.473
NCI-H1650	0.372	0.419	0.377	0.417	0.536	0.576	0.494	0.592	0.447	0.385	0.9	0.595	0.551	0.502	0.527	0.525	0.586	0.558	0.306	0.818
NCI-H647	0.449	0.273	0.356	0.325	0.301	0.413		0.417		0.295	0.614	0.307	0.249	0.207	0.276		0.433			0.399
NCI-H1944	0.476	0.415	0.426	0.391	0.435	0.346		0.328	0.335	0.359	0.373	0.341		0.269	0.307	0.361	0.335	0.325		0.328
LK-2	0.254	0.266	0.346	0.256	0.231	0.387		0.537	0.271	0.222	0.711	0.777	0.615	0.255	0.392	0.575	0.462	0.436	0.42	0.56
HCC-15	0.537	0.558	0.633	0.608	0.575	0.789	0.411	0.665	0.551	0.517	0.955	0.718	0.701	0.664	0.744	0.667	0.676	0.677	0.532	0.805
NCI-H838	0.418	0.408	0.475	0.433	0.444	0.465	0.398	0.562	0.54	0.421	0.397	0.292	0.231	0.286	0.256	0.507	0.531	0.41	0.258	0.482
HOP-62	0.185	0.199	0.214	0.249	0.193	0.554	0.33	0.764		0.496	0.88	0.757	0.599	0.535	0.433	0.661	0.669	0.705	0.642	0.76
NCI-H322M	0.687	0.658	0.632	0.654	0.699	0.5	0.419	0.492	0.567	0.583	0.579	0.541	0.581	0.693	0.591	0.581	0.484	0.507	0.381	0.524
NCI-H1395	0.705	0.676	0.692		0.743	0.578		0.617	0.549	0.512	0.795	0.508	0.491	0.384	0.536	0.59	0.553	0.619	0.572	0.646
NCI-H650	0.313	0.306	0.328	0.271	0.287	0.835		0.945		0.744	1.09	0.809	0.594	0.484	0.542	0.875	0.82	0.983	0.736	0.841
NCI-H661	0.557	0.522	0.524	0.472	0.55		0.329	0.499		0.332	0.415	0.457	0.33	0.202	0.288	0.358	0.402	0.412		0.366
EKVX	0.264	0.289	0.328	0.344	0.335	0.39	0.422	0.396	0.394	0.378	0.46	0.505	0.491	0.406	0.481	0.395	0.388	0.373	0.307	0.444
